Assays:
Candida albicans [1] = assay: Synergistic antifungal activity against fluconazole-resistant Candida albicans 901 assessed as inhibition of fungal growth in presence of fluconazole by checker board microdilution assay; format: functional
Candida albicans [2] = assay: Synergistic antifungal activity against fluconazole-resistant Candida albicans 904 assessed as inhibition of fungal growth in presence of fluconazole by checker board microdilution assay; format: functional
Candida albicans [3] = assay: Synergistic antifungal activity against fluconazole-resistant Candida albicans 632 assessed as inhibition of fungal growth in presence of fluconazole by checker board microdilution assay; format: functional
Candida albicans [4] = assay: Synergistic antifungal activity against fluconazole-resistant Candida albicans 100 assessed as inhibition of fungal growth in presence of fluconazole by checker board microdilution assay; format: functional
Candida albicans [5] = assay: Synergistic antifungal activity against fluconazole-resistant Candida albicans 103 assessed as inhibition of fungal growth in presence of fluconazole by checker board microdilution assay; format: functional
Candida albicans [6] = assay: Synergistic antifungal activity against fluconazole-resistant Candida albicans 311 assessed as inhibition of fungal growth in presence of fluconazole by checker board microdilution assay; format: functional
Candida albicans [7] = assay: Antifungal activity against fluconazole-resistant Candida albicans 901 assessed as inhibition of fungal growth by checker board microdilution assay; format: functional
Candida albicans [8] = assay: Antifungal activity against fluconazole-resistant Candida albicans 904 assessed as inhibition of fungal growth by checker board microdilution assay; format: functional
Candida albicans [9] = assay: Antifungal activity against fluconazole-resistant Candida albicans 632 assessed as inhibition of fungal growth by checker board microdilution assay; format: functional
Candida albicans [10] = assay: Antifungal activity against fluconazole-resistant Candida albicans 100 assessed as inhibition of fungal growth by checker board microdilution assay; format: functional
Candida albicans [11] = assay: Antifungal activity against fluconazole-resistant Candida albicans 103 assessed as inhibition of fungal growth by checker board microdilution assay; format: functional
Candida albicans [12] = assay: Antifungal activity against fluconazole-resistant Candida albicans 311 assessed as inhibition of fungal growth by checker board microdilution assay; format: functional
Candida albicans [13] = assay: Synergetic antifungal activity against fluconazole-resistant Candida albicans 901 assessed as fractional inhibitory concentration index in presence of fluconazole by checker board microdilution assay; format: functional
Candida albicans [14] = assay: Synergetic antifungal activity against fluconazole-resistant Candida albicans 904 assessed as fractional inhibitory concentration index in presence of fluconazole by checker board microdilution assay; format: functional
Candida albicans [15] = assay: Synergetic antifungal activity against fluconazole-resistant Candida albicans 632 assessed as fractional inhibitory concentration index in presence of fluconazole by checker board microdilution assay; format: functional
Candida albicans [16] = assay: Synergetic antifungal activity against fluconazole-resistant Candida albicans 100 assessed as fractional inhibitory concentration index in presence of fluconazole by checker board microdilution assay; format: functional
Candida albicans [17] = assay: Synergetic antifungal activity against fluconazole-resistant Candida albicans 103 assessed as fractional inhibitory concentration index in presence of fluconazole by checker board microdilution assay; format: functional
Candida albicans [18] = assay: Synergetic antifungal activity against fluconazole-resistant Candida albicans 311 assessed as fractional inhibitory concentration index in presence of fluconazole by checker board microdilution assay; format: functional
A549 = assay: Cytotoxicity against human A549 cell assessed as inhibition of cell growth after 24 hrs by MTT assay; format: functional, cell-based; conditions: A549, 24 h
MCF7 = assay: Cytotoxicity against human MCF7 cell assessed as inhibition of cell growth after 24 hrs by MTT assay; format: functional, cell-based; conditions: MCF7, 24 h
HepG2 = assay: Cytotoxicity against human HepG2 cell assessed as inhibition of cell growth after 24 hrs by MTT assay; format: functional, cell-based; conditions: HepG2, 24 h
[19] = Cytotoxicity against human THLE-2 cell assessed as inhibition of cell growth after 24 hrs by MTT assay; format: toxicity, cell-based; conditions: THLE-2 cells
[20] = Cytotoxicity against human BEAS-2B cell assessed as inhibition of cell growth after 24 hrs by MTT assay; format: toxicity, cell-based; conditions: BEAS-2B cells
[21] = Cytotoxicity against mouse NIH3T3 cell assessed as inhibition of cell growth after 24 hrs by MTT assay; format: toxicity, cell-based; conditions: NIH3T3 cells
RAW264.7 = assay: Cytotoxicity against mouse RAW264.7 cell assessed as inhibition of cell growth after 24 hrs by MTT assay; format: functional, cell-based; conditions: RAW264.7, 24 h
[22] = Cytotoxicity against mouse BV-2 cell assessed as inhibition of cell growth after 24 hrs by MTT assay; format: toxicity, cell-based; conditions: BV-2 cells
[23] = Metabolic stability in human liver microsomes assessed as half life in presence of NADPH cofactor under shaking condition for 10 mins measured after 5 to 60 mins by LC-MS/MS analysis; format: ADME, Microsome; conditions: time 15-70 min
[24] = Metabolic stability in human liver microsomes assessed as microsomal intrinsic clearance in presence of NADPH cofactor under shaking condition for 10 mins measured after 5 to 60 mins by LC-MS/MS analysis; format: ADME, Microsome; conditions: time 15-70 min
[25] = Metabolic stability in human liver microsomes assessed as intrinsic clearance in presence of NADPH cofactor under shaking condition for 10 mins measured after 5 to 60 mins by LC-MS/MS analysis; format: ADME, Microsome; conditions: time 15-70 min
[26] = Metabolic stability in human liver microsomes assessed as compound remaining in presence of NADPH cofactor under shaking condition for 10 mins measured after 60 mins by LC-MS/MS analysis; format: ADME, Microsome; conditions: time 70 min, read-out: Stability
[27] = Stability in human plasma assessed as compound remaining at 120 mins by LC-MS/MS analysis; format: ADME, cell-free; conditions: read-out: Stability
[28] = Stability in human plasma assessed as half life at 120 mins by LC-MS/MS analysis; format: ADME, cell-free
CYP1A2 = target: T1, CYP1A2 (Homo sapiens, UniProt P05177); assay: Inhibition of CYP1A2 in human liver microsome at 10 uM using phenacetin as substrate incubated for 10 mins in presence of NADPH cofactor by LC-MS/MS analysis; format: ADME; conditions: liver microsomes, probe phenacetin
T1 sequence (P05177 whole entry): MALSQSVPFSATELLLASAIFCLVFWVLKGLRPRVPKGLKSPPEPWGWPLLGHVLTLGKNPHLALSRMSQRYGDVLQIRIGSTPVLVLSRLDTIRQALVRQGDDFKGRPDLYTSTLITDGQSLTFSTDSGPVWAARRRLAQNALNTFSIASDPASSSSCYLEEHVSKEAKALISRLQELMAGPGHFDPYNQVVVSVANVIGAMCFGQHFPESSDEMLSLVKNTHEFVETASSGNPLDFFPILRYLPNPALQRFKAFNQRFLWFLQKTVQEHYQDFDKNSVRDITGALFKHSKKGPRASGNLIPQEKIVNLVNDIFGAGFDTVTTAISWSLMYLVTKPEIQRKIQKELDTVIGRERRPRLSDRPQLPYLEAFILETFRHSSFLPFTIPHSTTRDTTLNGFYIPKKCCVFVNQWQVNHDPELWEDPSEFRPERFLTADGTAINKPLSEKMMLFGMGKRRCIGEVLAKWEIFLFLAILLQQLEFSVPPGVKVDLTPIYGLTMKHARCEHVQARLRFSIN

CYP2C9 = CYP2C9 (Homo sapiens, UniProt P11712); assay: Inhibition of CYP2C9 in human liver microsome at 10 uM using diclofenac as substrate incubated for 10 mins in presence of NADPH cofactor by LC-MS/MS analysis; format: ADME; conditions: liver microsomes, probe diclofenac
CYP2C19 = CYP2C19 (Homo sapiens, UniProt P33261); assay: Inhibition of CYP2C19 in human liver microsome at 10 uM using S-mephenytoin as substrate incubated for 10 mins in presence of NADPH cofactor by LC-MS/MS analysis; format: ADME; conditions: liver microsomes, probe S-mephenytoin
CYP2D6 = CYP2D6 (Homo sapiens, UniProt P10635); assay: Inhibition of CYPD6 in human liver microsome at 10 uM using dextromethorphan as substrate incubated for 10 mins in presence of NADPH cofactor by LC-MS/MS analysis; format: ADME; conditions: liver microsomes, probe dextromethorphan
CYP3A4 = CYP3A4 (Homo sapiens, UniProt P08684); assay: Inhibition of CYP3A4 in human liver microsome at 10 uM using midazolam as substrate incubated for 10 mins in presence of NADPH cofactor by LC-MS/MS analysis; format: ADME; conditions: liver microsomes, probe midazolam
Candida albicans [29] = assay: Potentiation of fluconazole-induced antifungal activity against fluconazole-resistant Candida albicans 901 assessed as fluconazole MIC by checker board microdilution assay; format: functional
Candida albicans [30] = assay: Potentiation of fluconazole-induced antifungal activity against fluconazole-resistant Candida albicans 904 assessed as fluconazole MIC by checker board microdilution assay; format: functional
Candida albicans [31] = assay: Potentiation of fluconazole-induced antifungal activity against fluconazole-resistant Candida albicans 632 assessed as fluconazole MIC by checker board microdilution assay; format: functional
Candida albicans [32] = assay: Potentiation of fluconazole-induced antifungal activity against fluconazole-resistant Candida albicans 100 assessed as fluconazole MIC by checker board microdilution assay; format: functional
Candida albicans [33] = assay: Potentiation of fluconazole-induced antifungal activity against fluconazole-resistant Candida albicans 103 assessed as fluconazole MIC by checker board microdilution assay; format: functional
Candida albicans [34] = assay: Potentiation of fluconazole-induced antifungal activity against fluconazole-resistant Candida albicans 311 assessed as fluconazole MIC by checker board microdilution assay; format: functional

CYP3A4, sequence (P08684 whole entry): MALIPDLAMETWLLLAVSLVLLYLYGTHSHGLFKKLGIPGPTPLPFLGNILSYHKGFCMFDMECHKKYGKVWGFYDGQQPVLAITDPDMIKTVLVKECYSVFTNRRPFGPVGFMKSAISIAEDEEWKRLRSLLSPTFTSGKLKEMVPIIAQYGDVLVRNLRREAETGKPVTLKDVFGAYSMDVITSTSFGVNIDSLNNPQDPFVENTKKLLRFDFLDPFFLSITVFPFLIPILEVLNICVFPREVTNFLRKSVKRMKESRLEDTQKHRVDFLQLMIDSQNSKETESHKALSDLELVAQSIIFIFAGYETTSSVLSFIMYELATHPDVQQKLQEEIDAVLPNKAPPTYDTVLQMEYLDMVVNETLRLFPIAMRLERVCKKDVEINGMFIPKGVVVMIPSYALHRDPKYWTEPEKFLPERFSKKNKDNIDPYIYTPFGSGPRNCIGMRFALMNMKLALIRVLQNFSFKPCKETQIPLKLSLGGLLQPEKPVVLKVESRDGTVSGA
CYP2D6, sequence (P10635 whole entry): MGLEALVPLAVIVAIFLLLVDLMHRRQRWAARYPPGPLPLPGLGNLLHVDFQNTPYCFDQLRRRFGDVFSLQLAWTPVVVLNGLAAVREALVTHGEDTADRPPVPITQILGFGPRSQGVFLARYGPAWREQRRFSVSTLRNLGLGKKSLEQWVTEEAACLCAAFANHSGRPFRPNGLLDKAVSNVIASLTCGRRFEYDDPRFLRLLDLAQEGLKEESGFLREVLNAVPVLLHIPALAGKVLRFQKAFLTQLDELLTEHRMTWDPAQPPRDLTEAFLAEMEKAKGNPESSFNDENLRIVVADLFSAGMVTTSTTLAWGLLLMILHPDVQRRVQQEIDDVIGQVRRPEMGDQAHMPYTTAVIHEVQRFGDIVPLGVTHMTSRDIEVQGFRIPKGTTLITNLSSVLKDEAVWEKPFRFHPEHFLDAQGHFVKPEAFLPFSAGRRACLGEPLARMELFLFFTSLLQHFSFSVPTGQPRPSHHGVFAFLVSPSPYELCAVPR
CYP2C9, sequence (P11712 whole entry): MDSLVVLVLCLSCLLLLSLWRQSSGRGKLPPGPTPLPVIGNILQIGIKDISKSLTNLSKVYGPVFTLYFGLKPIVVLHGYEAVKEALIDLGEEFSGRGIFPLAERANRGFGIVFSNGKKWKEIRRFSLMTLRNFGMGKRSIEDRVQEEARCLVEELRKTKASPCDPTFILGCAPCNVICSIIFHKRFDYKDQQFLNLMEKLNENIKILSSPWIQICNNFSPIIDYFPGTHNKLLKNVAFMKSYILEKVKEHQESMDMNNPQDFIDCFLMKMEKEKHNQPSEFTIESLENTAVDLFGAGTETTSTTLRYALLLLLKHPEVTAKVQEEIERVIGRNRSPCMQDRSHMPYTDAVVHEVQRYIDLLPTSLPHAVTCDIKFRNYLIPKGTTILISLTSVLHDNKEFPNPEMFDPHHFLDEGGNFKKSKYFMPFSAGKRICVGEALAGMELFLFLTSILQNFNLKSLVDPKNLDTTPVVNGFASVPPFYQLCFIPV
CYP2C19, sequence (P33261 whole entry): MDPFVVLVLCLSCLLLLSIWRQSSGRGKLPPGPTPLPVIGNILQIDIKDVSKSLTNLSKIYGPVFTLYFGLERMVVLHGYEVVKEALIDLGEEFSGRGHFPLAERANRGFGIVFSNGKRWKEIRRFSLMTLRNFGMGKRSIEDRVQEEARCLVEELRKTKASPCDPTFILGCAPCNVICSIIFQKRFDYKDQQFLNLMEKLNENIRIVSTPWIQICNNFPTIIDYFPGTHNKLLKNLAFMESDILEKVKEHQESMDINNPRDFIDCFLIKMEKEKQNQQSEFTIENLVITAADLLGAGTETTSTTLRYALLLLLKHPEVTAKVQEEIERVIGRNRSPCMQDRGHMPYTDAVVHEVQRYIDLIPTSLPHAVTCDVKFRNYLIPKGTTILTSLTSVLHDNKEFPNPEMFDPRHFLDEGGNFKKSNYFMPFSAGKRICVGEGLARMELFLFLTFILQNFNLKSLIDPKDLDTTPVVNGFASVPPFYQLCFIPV

CNC(=O)c1noc(-c2cc(-c3ccc(C)cc3)c(O)cc2O)c1-c1ccc(CN2CCCCC2)cc1
MIC80 (Candida albicans [1]): 0.25 mg/L
MIC80 (Candida albicans [2]): 0.125 mg/L
MIC80 (Candida albicans [3]): 2 mg/L
MIC80 (Candida albicans [4]): 1 mg/L
MIC80 (Candida albicans [5]): 0.5 mg/L
MIC80 (Candida albicans [6]): 0.5 mg/L
MIC80 (Candida albicans [7]): > 64 mg/L
MIC80 (Candida albicans [8]): > 64 mg/L
MIC80 (Candida albicans [9]): > 64 mg/L
MIC80 (Candida albicans [10]): > 64 mg/L
MIC80 (Candida albicans [11]): > 64 mg/L
MIC80 (Candida albicans [12]): > 64 mg/L
fractional inhibitory concentration index (FICI) (Candida albicans [13]): 0.02
fractional inhibitory concentration index (FICI) (Candida albicans [14]): 0.01
fractional inhibitory concentration index (FICI) (Candida albicans [15]): 0.062
fractional inhibitory concentration index (FICI) (Candida albicans [16]): 0.047
fractional inhibitory concentration index (FICI) (Candida albicans [17]): 0.039
fractional inhibitory concentration index (FICI) (Candida albicans [18]): 0.023
IC50 (A549): 10.8 µM
IC50 (MCF7): 15.6 µM
IC50 (HepG2): 24.9 µM
IC50 at 24 h [19]: 2.79 µM
IC50 at 24 h [20]: 11.6 µM
IC50 at 24 h [21]: 0.46 µM
IC50 (RAW264.7): 3.65 µM
IC50 at 24 h [22]: 3.04 µM
half-life [23]: 0.722 h
CLint [24]: 32 µL/min/mg
CLint [25]: 1.73 L/h/kg
remaining at 1.167 h [26]: 38.3%
remaining at 2 h [27]: 55.2%
half-life [28]: 2.18 h
inhibition at 10 min, 10 µM (CYP1A2): 17.7%
inhibition at 10 min, 10 µM (CYP2C9): 44.6%
inhibition at 10 min, 10 µM (CYP2C19): 48.5%
inhibition at 10 min, 10 µM (CYP2D6): 24.8%
inhibition at 10 min, 10 µM (CYP3A4): 17.7%
MIC80 (Candida albicans [29]): 1 mg/L
MIC80 (Candida albicans [30]): 0.5 mg/L
MIC80 (Candida albicans [31]): 2 mg/L
MIC80 (Candida albicans [32]): 2 mg/L
MIC80 (Candida albicans [33]): 2 mg/L
MIC80 (Candida albicans [34]): 1 mg/L

From ChEMBL document CHEMBL5154804, “Species-Selective Targeting of Fungal Hsp90: Design, Synthesis, and Evaluation of Novel 4,5-Diarylisoxazole Derivatives for the Combination Treatment of Azole-Resistant Candidiasis” (J Med Chem, 2022)
